Test results published in ChEMBL document CHEMBL3259738, “Discovery of substituted benzamides as follicle stimulating hormone receptor allosteric modulators” (Bioorg Med Chem Lett, 2014).
Converted amounts (≈) assume the structure as drawn.

Key:
[1] = molecular target: T1, Follicle-stimulating hormone receptor (Homo sapiens) (UniProt P23945); experiment: Positive allosteric modulation of human FSH receptor expressed in CHO cells assessed as effect on FSH-induced cAMP accumulation at 12 uM after 1 hr by HTRF assay relative to FSH; assay type: functional, cell-based
T1 sequence (whole entry): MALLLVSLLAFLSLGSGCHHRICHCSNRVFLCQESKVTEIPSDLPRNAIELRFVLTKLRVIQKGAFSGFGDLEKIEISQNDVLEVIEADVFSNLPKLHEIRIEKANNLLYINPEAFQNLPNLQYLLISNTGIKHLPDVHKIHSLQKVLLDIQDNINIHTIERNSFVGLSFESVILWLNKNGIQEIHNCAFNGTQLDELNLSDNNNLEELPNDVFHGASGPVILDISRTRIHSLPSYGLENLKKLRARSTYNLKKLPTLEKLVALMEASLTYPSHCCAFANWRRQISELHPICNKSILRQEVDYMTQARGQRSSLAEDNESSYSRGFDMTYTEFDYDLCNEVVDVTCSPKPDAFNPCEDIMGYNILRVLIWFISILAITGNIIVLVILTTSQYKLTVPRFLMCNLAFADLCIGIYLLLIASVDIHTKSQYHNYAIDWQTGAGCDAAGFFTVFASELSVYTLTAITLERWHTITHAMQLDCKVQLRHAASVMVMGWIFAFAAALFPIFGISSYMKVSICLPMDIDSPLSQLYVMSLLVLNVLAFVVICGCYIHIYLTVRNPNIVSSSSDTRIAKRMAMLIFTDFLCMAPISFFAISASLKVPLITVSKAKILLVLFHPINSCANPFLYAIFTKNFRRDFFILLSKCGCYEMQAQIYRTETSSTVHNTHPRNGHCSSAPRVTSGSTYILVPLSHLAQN

[2] = molecular target: T1, Follicle-stimulating hormone receptor (Homo sapiens); experiment: Positive allosteric modulation of human FSH receptor expressed in CHO cells assessed as effect on FSH-induced cAMP accumulation at 50 uM after 1 hr by HTRF assay relative to FSH; assay type: functional, cell-based
[3] = Clearance in human microsomes; assay type: ADME
[4] = molecular target: T2, Follicle-stimulating hormone receptor (Homo sapiens, UniProt P23945); experiment: Positive allosteric modulation of human FSH receptor expressed in CHO cells assessed as effect on FSH-induced cAMP accumulation after 1 hr by HTRF assay; assay type: functional, cell-based
T2 sequence (P23945 whole entry): T1 sequence (whole entry)

[5] = Clearance in rat microsomes; assay type: ADME
[6] = Induction of estradiol production in rat primary granulosa cells after 24 hrs by ELISA; assay type: functional
[7] = Aqueous solubility of the compound at pH 7.4; assay type: physicochemical
[8] = Clearance in immature Sprague-Dawley rat at 0.2 mg/kg, iv; assay type: ADME, organism-based; parameters: dose 0.2 mg/kg, route intravenous; details: in vivo
[9] = Oral bioavailability in immature Sprague-Dawley rat at 0.5 mg/kg; assay type: ADME, organism-based; details: in vivo
[10] = Induction of estradiol production in rat primary granulosa cells after 24 hrs by ELISA relative to FSH; assay type: functional
[11] = Volume of distribution at steady state in immature Sprague-Dawley rat at 0.2 mg/kg, iv; assay type: ADME, organism-based; parameters: dose 0.2 mg/kg, route intravenous; details: in vivo, read-out: Vdss

## Cc1ccccc1N1CCN(c2ccc(C(=O)NCCCN3CCCC3=O)cc2NC(=O)c2cccnc2)CC1
[1]
  Activity: 37%

## Cc1ccccc1N1CCN(c2ccc(C(=O)NCCCN3CCCC3=O)cc2NC(=O)c2coc(C3CC3)n2)CC1C (configuration not stated)
[2]
  Activity: 36%

## Cc1ccccc1N1CCN(c2ccc(C(=O)N3CCC(N4CCCC4=O)CC3)cc2NC(=O)c2ccco2)CC1
[1]
  Activity: 40%

## COc1ccccc1N1CCN(c2ccc(C(=O)NCCCN3CCCC3=O)cc2NC(=O)c2ccco2)CC1
[2]
  Activity: 20%

## Cc1ccccc1C1CCN(c2ccc(C(=O)NCCCN3CCCC3=O)cc2NC(=O)c2ccco2)CC1
[2]
  Activity: 1%

## Cc1ccccc1N1CCN(c2ccc(C(=O)NCCCN3CCCC3=O)cc2NC(=O)c2ccncc2)CC1
[1]
  Activity: 34%

## Cc1ccccc1N1CCN(c2ccc(C(=O)NCc3cccc(C(N)=O)c3)cc2NC(=O)c2ccco2)CC1
[3]
  microsomal CLint: 54 µL/min/mg
[4]
  EC50: 46 nM
[5]
  microsomal CLint: 31 µL/min/mg

## Cc1ccccc1N1CCN(c2ccc(C(=O)NCCCN3CCCC3=O)cc2NC(=O)c2coc(C3CC3)n2)CC1
[3]
  microsomal CLint: 260 µL/min/mg
[4]
  EC50: 99 nM
[5]
  microsomal CLint: 225 µL/min/mg

## Cc1ccc(N2CCN(c3ccc(C(=O)NCCCN4CCCC4=O)cc3NC(=O)c3coc(C4CC4)n3)CC2)cc1
[2]
  Activity: 13%

## Cc1ccccc1N1CCN(c2ccc(C(=O)NCCCN3CCCC3=O)cc2NS(=O)(=O)c2ccco2)CC1
[1]
  Activity: 10%

## Cc1ccccc1N1CCN(c2ccc(C(=O)NCCCN3C(=O)CCC3=O)cc2NC(=O)c2ccco2)CC1
[3]
  microsomal CLint: 33 µL/min/mg
[4]
  EC50: 184 nM
[5]
  microsomal CLint: 38 µL/min/mg

## Cc1ccccc1N1CCN(c2ccc(C(=O)NCCCc3nn[nH]n3)cc2NC(=O)c2coc(C3CC3)n2)CC1
[6]
  EC50: 170 nM
[7]
  solubility: 160 µM (≈ 88.9 µg/mL)
[8]
  clearance: 13.2 mL/min/kg
[3]
  microsomal CLint: 20 µL/min/mg
[9]
  bioavailability: 21%
[4]
  EC50: 89 nM
[10]
  Efficacy: 78%
[11]
  Vd: 5.46 L/kg
[5]
  microsomal CLint: 18 µL/min/mg

## Cc1ccccc1N1CCN(c2ccc(C(=O)N[C@@H]3CCC[C@@H](O)[C@H]3O)cc2NC(=O)c2coc(C3CC3)n2)CC1
[6]
  EC50: 5 nM
[8]
  clearance: 3.41 mL/min/kg
[3]
  microsomal CLint: 72 µL/min/mg
[9]
  bioavailability: 23%
[4]
  EC50: 53 nM
[10]
  Efficacy: 81%
[11]
  Vd: 1.65 L/kg
[5]
  microsomal CLint: 13 µL/min/mg

## O=C(NCCCN1CCCC1=O)c1ccc(N2CCN(c3ccccn3)CC2)c(NC(=O)c2ccco2)c1
[2]
  Activity: 20%

## Cc1ccccc1N1CCN(c2ccc(C(=O)NCCCN3CCOC3=O)cc2NC(=O)c2ccco2)CC1
[3]
  microsomal CLint: 59 µL/min/mg
[4]
  EC50: 28 nM
[5]
  microsomal CLint: 25 µL/min/mg

## O=C(NCCCN1CCCC1=O)c1ccc(N2CCNCC2)c(NC(=O)c2ccco2)c1
[2]
  Activity: 1%

## Cc1ccccc1N1CCN(c2ccc(C(=O)NCCCN3CCCC3=O)cc2NC(=O)c2ccco2)CC1
[3]
  microsomal CLint: 312 µL/min/mg
[5]
  microsomal CLint: 233 µL/min/mg

## Cc1ccccc1N1CCN(c2ccc(CNCCCN3CCCC3=O)cc2NC(=O)c2coc(C3CC3)n2)CC1
[1]
  Activity: 4.5%
